Where two headings read alike, the source gives them in different places.
Experiments:
Mino cells = experiment: Antiproliferative effect, MTS cell viability assay, Mino cells; type: cell-based; details: Homo sapiens, Mino mantle cell lymphoma cells, read-out: IC50 (anti-proliferation) Mino cells
Method in brief: (§1)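 MTS read-out, A490 of formazan from metabolically active cells; compound 0–10 μM (0, 0.001, 0.01, 0.1, 1, 10 μM), 72 h exposure.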

BTK [1] = molecular target: T1, BTK (Homo sapiens, UniProt Q06187); experiment: Degradation of BTK protein in JeKo-1 cells (Western blot; DC50, Dmax); details: JeKo-1 mantle cell lymphoma cells, various concentrations, 24 hours
Procedure: (§3) Namalwa, JeKo-1, or Mino cells were plated in 24-well plates at a density of 10^5 cells/well. Media containing various drug concentrations were added on the day following plating (day 0) and allowed to incubate for 24 hours for Western blot. Media with the tested compound was changed every other day. […] Media were removed and dishes were washed with 1×DPBS. Lysates were made by adding 150 μL of complete lysis solution and scraping cells into a 1.5 mL microcentrifuge tube. Lysates were placed on a rotisserie at 4° C. for 30 min and then spun at 4° C. at 12000 rcf for 10 min. Supernatants were assayed for protein content, snap-frozen, and stored a −80° C. if not run immediately. Then 50 μg of protein was subjected to Western blot protocol. […] They were then imaged on a LICOR infrared scanner.

BTK [2] = molecular target: T1, BTK; experiment: BTK degradation, DC50 and Dmax of Table 1 (cell line not given); type: cell-based; set-up: endogenous in cells; details: for DC50: concentration giving 50% reduction of BTK expression level
BTK [3] = molecular target: T1, BTK; experiment: Degradation of BTK protein in Namalwa cells (Western blot; DC50, Dmax); details: Namalwa B lymphocyte cells, Western blot; for degradation of BTK protein: various concentrations, 24 hours
JeKo-1 cells = experiment: Antiproliferative effect, MTS cell viability assay, JeKo-1 cells; type: cell-based; details: Homo sapiens; JeKo-1 mantle cell lymphoma cells; read-out: IC50 (anti-proliferation) JeKO-1 cells
Method in brief: as §1

BTK [4] = molecular target: T1, BTK; experiment: Degradation of BTK protein in Mino cells (Western blot; DC50, Dmax); details: Mino mantle cell lymphoma cells, various concentrations, 24 hours
Procedure: as §3

[5] = system: primary human CLL cell CTG-3754; experiment: Ex vivo cell inhibition, Cell Titer Glo viability, primary CLL cell CTG-3754; type: cell-based; details: 10 nM to 50 μM, 6 days
Procedure: (§2) Primary human Human Chronic Lymphocytic Leukemia cell lines were used to measure ex vivo cell inhibition by exemplary compounds. The cells were incubated with test compounds at a dose range of 10 nM to 50 μM for 6 days. Cell Titer Glo data were gathered for cell viability evaluation.

[6] = system: primary human CLL cell CTG-3763; experiment: Ex vivo cell inhibition, Cell Titer Glo viability, primary CLL cell CTG-3763; type: cell-based; details: 10 nM to 50 μM, 6 days
Procedure: as §2

Jeko-1 xenograft tumor = experiment: In vivo tumor inhibition efficacy, JeKo-1 xenograft in NOD/SCID mice; details: 20 mg/kg daily oral gavage for 3 weeks
Procedure: JeKo-1 cells were obtained from American Type Culture Collection (ATCC, Manassas, VA). cells were maintained in RPMI 1640 (Life Technologies, Grand Island, NY) supplemented with 10% heat-inactivated fetal bovine serum (56° C. for 30 minutes), penicillin (10,000 units/mL; Sigma, St Louis, Mo), streptomycin (10 mg/mL; Sigma), gentamicin (50 mg/mL; Life Technologies), amphotericin B (25 mg/mL; Sigma), and L-glutamine (200 mM, 29.2 mg/mL; Life Technologies). culture, as previously described (29, 30). JeKo-1 cells (10 million) were subcutaneously implanted into the flank of NOD/SCID mice. When the average tumor volume reached approximately 300 mm^3, the following treatments were administered in cohorts of 5 mice for each treatment: vehicle alone, 20 mg/kg ibrutinib, 20 mg/kg Compound 2, and 20 mg/kg Compound 161 was administered daily via oral gavage for 3 weeks. Tumor growth was monitored every other day by calipers and tumor volume was calculated using the equation: (½(length×width^2)).

T1 sequence (Q06187 whole entry): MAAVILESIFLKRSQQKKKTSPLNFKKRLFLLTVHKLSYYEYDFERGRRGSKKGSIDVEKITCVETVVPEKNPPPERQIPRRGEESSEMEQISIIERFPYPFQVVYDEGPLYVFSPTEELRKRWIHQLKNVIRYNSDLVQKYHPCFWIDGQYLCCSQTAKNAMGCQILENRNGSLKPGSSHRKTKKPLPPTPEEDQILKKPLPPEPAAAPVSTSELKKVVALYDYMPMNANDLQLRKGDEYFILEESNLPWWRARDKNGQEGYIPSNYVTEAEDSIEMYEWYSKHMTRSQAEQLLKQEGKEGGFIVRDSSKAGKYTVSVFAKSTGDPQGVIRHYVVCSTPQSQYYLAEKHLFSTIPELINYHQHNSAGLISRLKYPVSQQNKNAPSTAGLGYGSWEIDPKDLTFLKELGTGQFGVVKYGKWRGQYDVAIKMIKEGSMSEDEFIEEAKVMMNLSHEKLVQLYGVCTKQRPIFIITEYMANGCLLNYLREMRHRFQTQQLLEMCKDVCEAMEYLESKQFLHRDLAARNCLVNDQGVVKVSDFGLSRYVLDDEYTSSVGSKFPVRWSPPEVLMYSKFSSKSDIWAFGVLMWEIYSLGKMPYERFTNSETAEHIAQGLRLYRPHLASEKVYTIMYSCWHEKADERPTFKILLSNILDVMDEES

Row | Dmax (BTK [2]) [%] | DC50 (BTK [2]) [µM] | degradation of BTK protein at 10^−6 M (BTK [3]) | degradation of BTK protein (BTK [3]) | Structure (SMILES) | IC50 (Mino cells; MINO) [µM] | degradation of BTK protein (BTK [1]) | IC50 (JeKo-1 cells) [µM] | degradation of BTK protein (BTK [4]) | effect on primary human CLL cell viability [5] | effect on primary human CLL cell viability [6] | efficacy in inhibiting xenograft tumor growth (Jeko-1 xenograft tumor) | IC50 (Mino cells) [µM]
1 | > 90 | < 0.01 | degradation | dose-dependent degradation | Nc1ncnc2c1c(-c1ccc(Oc3ccccc3)cc1)nn2[C@@H]1CCCN(CC2CCN(C(=O)N3CCC(N4CCN(c5ccc6c(c5)C(=O)N(C5CCC(=O)NC5=O)C6=O)CC4)CC3)CC2)C1 (stereo partly drawn) [Compound 27, 5-(4-(1-(4-(((R)-3-(4-amino-3-(4-phenoxyphenyl)-1H-pyrazolo(3,4-d)pyrimidin-1-yl)piperidin-1-yl)methyl)piperidine-1-carbonyl)piperidin-4-yl)piperazin-1-yl)-2-(2,6-dioxopiperidin-3-yl)isoindoline-1,3-dione] | 1 to 10 | dose-dependent degradation | < 1 | dose-dependent degradation |  |  |  | 
2 | > 90 | 0.01 to 0.05 |  | dose-dependent degradation | Nc1ncnc2c1c(-c1ccc(Oc3ccccc3)cc1)nn2C1CCN(CCOCCOCCN2CCN(c3ccc4c(c3)C(=O)N(C3CCC(=O)NC3=O)C4=O)CC2)CC1 (centres unmarked) [Compound 1] | 1 to 10 |  | 1 to 10 |  | dose-dependent effect | dose-dependent effect |  | 
3 | > 90 | 0.01 to 0.05 | degradation | dose-dependent degradation | Nc1ncnc2c1c(-c1ccc(Oc3ccccc3)cc1)nn2[C@@H]1CCCN(C2CCN(C(=O)N3CCC(N4CCN(c5ccc6c(c5)C(=O)N(C5CCC(=O)NC5=O)C6=O)CC4)CC3)CC2)C1 (stereo partly drawn) [Compound 161, 5-(4-(1-((R)-3-(4-amino-3-(4-phenoxyphenyl)-1H-pyrazolo(3,4-d)pyrimidin-1-yl)-(1,4′-bipiperidine)-1′-carbonyl)piperidin-4-yl)piperazin-1-yl)-2-(2,6-dioxopiperidin-3-yl)isoindoline-1,3-dione] | < 1 |  | < 1 |  |  |  | inhibiting Jeko-1 xenograft tumor growth | 

Row | Structure (SMILES) | Dmax (BTK [2]) [%] | DC50 (BTK [2]) [µM] | degradation of BTK protein at 10^−6 M (BTK [3]) | degradation of BTK protein (BTK [3]) | IC50 (Mino cells; MINO) [µM] | degradation of BTK protein (BTK [1]) | IC50 (JeKo-1 cells) [µM] | degradation of BTK protein (BTK [4]) | effect on primary human CLL cell viability [5] | effect on primary human CLL cell viability [6] | efficacy in inhibiting xenograft tumor growth (Jeko-1 xenograft tumor) | IC50 (Mino cells) [µM]
4 | Nc1ncnc2c1c(-c1ccc(Oc3ccccc3)cc1)nn2[C@@H]1CCCN(C2CCN(C(=O)N3CCC(N4CCN(c5ccc6c(c5)CN(C5CCC(=O)NC5=O)C6=O)CC4)CC3)CC2)C1 (stereo partly drawn) [Compound 162, 3-(5-(4-(1-((R)-3-(4-amino-3-(4-phenoxyphenyl)-1H-pyrazolo(3,4-d)pyrimidin-1-yl)-(1,4′-bipiperidine)-1′-carbonyl)piperidin-4-yl)piperazin-1-yl)-1-oxoisoindolin-2-yl)piperidine-2,6-dione] | > 90 | < 0.01 |  | dose-dependent degradation |  | dose-dependent degradation | < 1 | dose-dependent degradation |  |  |  | < 1

— patent publication US12139492B2 (Endotarget Inc., priority 2021, dated 2024)
